Key:
Test in all cases: relative viability (nuclei count vs DMSO), 5 days (fraction); higher = more cells survive
NCI-H2087 = test system: NCI-H2087
Outline: (§1)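 Relative viability is defined as nuclei in treated wells over nuclei in vehicle wells. Duplicate plates were run and medians reported. Lung cancer cell lines in 1536-well plates were dosed by pin tool one day after seeding, with one drug or with a fixed anchor-drug dose plus five library-drug doses (not always all listed) in √10 steps, and nuclei were counted after 5 days.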

LOU-NH91 = test system: LOU-NH91
Outline: as §1

HCC-827 = test system: HCC-827
Outline: as §1

NCI-H661 = test system: NCI-H661
Outline: as §1

NCI-H2009 = test system: NCI-H2009
Outline: as §1

NCI-H1355 = test system: NCI-H1355
Outline: as §1

NCI-H2405 = test system: NCI-H2405
Outline: as §1

LC-2-ad = test system: LC-2-ad
Outline: as §1

NCI-H647 = test system: NCI-H647
Outline: as §1

NCI-H1437 = test system: NCI-H1437
Outline: as §1

BEN = test system: BEN
Outline: as §1

NCI-H2170 = test system: NCI-H2170
Outline: as §1

SK-MES-1 = test system: SK-MES-1
Outline: as §1

EKVX = test system: EKVX
Outline: as §1

NCI-H1395 = test system: NCI-H1395
Outline: as §1

SK-LU-1 = test system: SK-LU-1
Outline: as §1

NCI-H2228 = test system: NCI-H2228
Outline: as §1

NCI-H596 = test system: NCI-H596
Outline: as §1

HCC-366 = test system: HCC-366
Outline: as §1

NCI-H1734 = test system: NCI-H1734
Outline: as §1

HARA = test system: HARA
Outline: as §1

NCI-H1792 = test system: NCI-H1792
Outline: as §1

Q: For `CC1(C)CCC(c2ccc(Cl)cc2)=C(CN2CCN(c3ccc(C(=O)NS(=O)(=O)c4ccc(N[C@H](CCN5CCOCC5)CSc5ccccc5)c(S(=O)(=O)C(F)(F)F)c4)cc3)CC2)C1` [Navitoclax] + CS(=O)(=O)CCNCc1ccc(-c2ccc3ncnc(Nc4ccc(OCc5cccc(F)c5)c(Cl)c4)c3c2)o1 [Lapatinib] (partner 2 µM), which relative viability (NCI-H2087; first compound 0.005 µM) is on record?
A: 1.15

Q: And the relative viability (NCI-H2087; first compound 0.01581 µM)?
A: 1.06

Q: What about the relative viability (NCI-H2087; first compound 0.05 µM) of the same compound?
A: 0.837

Q: What about the relative viability (NCI-H2087; first compound 0.1581 µM) of the same compound?
A: 0.925

Q: And the relative viability (NCI-H2087; first compound 0.5 µM)?
A: 1.02

Q: And the relative viability (LOU-NH91; first compound 0.005 µM)?
A: 0.802

Q: What about the relative viability (LOU-NH91; first compound 0.01581 µM) of the same compound?
A: 0.858

Q: What about the relative viability (LOU-NH91; first compound 0.05 µM) of the same compound?
A: 0.756

Q: What about the relative viability (LOU-NH91; first compound 0.1581 µM) of the same compound?
A: 0.681

Q: What about the relative viability (LOU-NH91; first compound 0.5 µM) of the same compound?
A: 0.549

Q: What about the relative viability (HCC-827; first compound 0.005 µM) of the same compound?
A: 0.199

Q: What about the relative viability (HCC-827; first compound 0.01581 µM) of the same compound?
A: 0.2

Q: What about the relative viability (HCC-827; first compound 0.05 µM) of the same compound?
A: 0.194

Q: And the relative viability (HCC-827; first compound 0.1581 µM)?
A: 0.21

Q: What about the relative viability (HCC-827; first compound 0.5 µM) of the same compound?
A: 0.196

Q: What about the relative viability (NCI-H661; first compound 0.005 µM) of the same compound?
A: 0.542

Q: And the relative viability (NCI-H661; first compound 0.01581 µM)?
A: 0.613

Q: And the relative viability (NCI-H661; first compound 0.05 µM)?
A: 0.484

Q: What about the relative viability (NCI-H661; first compound 0.1581 µM) of the same compound?
A: 0.504

Q: And the relative viability (NCI-H661; first compound 0.5 µM)?
A: 0.391

Q: And the relative viability (NCI-H2009; first compound 0.005 µM)?
A: 0.938

Q: And the relative viability (NCI-H2009; first compound 0.01581 µM)?
A: 1.14

Q: And the relative viability (NCI-H2009; first compound 0.05 µM)?
A: 0.953

Q: What about the relative viability (NCI-H2009; first compound 0.1581 µM) of the same compound?
A: 0.9

Q: What about the relative viability (NCI-H2009; first compound 0.5 µM) of the same compound?
A: 0.998

Q: And the relative viability (NCI-H1355; first compound 0.005 µM)?
A: 0.988

Q: What about the relative viability (NCI-H1355; first compound 0.01581 µM) of the same compound?
A: 0.956

Q: And the relative viability (NCI-H1355; first compound 0.05 µM)?
A: 1.03

Q: What about the relative viability (NCI-H1355; first compound 0.1581 µM) of the same compound?
A: 1.05

Q: What about the relative viability (NCI-H1355; first compound 0.5 µM) of the same compound?
A: 1.02

Q: What about the relative viability (NCI-H2405; first compound 0.005 µM) of the same compound?
A: 1.03

Q: What about the relative viability (NCI-H2405; first compound 0.01581 µM) of the same compound?
A: 1.29

Q: And the relative viability (NCI-H2405; first compound 0.05 µM)?
A: 1.19

Q: And the relative viability (NCI-H2405; first compound 0.1581 µM)?
A: 1.02

Q: And the relative viability (NCI-H2405; first compound 0.5 µM)?
A: 0.927

Q: And the relative viability (LC-2-ad; first compound 0.005 µM)?
A: 0.936

Q: And the relative viability (LC-2-ad; first compound 0.01581 µM)?
A: 1.02

Q: And the relative viability (LC-2-ad; first compound 0.05 µM)?
A: 0.898

Q: What about the relative viability (LC-2-ad; first compound 0.1581 µM) of the same compound?
A: 1.01

Q: What about the relative viability (LC-2-ad; first compound 0.5 µM) of the same compound?
A: 0.96

Q: And the relative viability (NCI-H647; first compound 0.005 µM)?
A: 0.888

Q: What about the relative viability (NCI-H647; first compound 0.01581 µM) of the same compound?
A: 1.05

Q: And the relative viability (NCI-H647; first compound 0.05 µM)?
A: 1.51

Q: And the relative viability (NCI-H647; first compound 0.1581 µM)?
A: 1.1

Q: What about the relative viability (NCI-H647; first compound 0.5 µM) of the same compound?
A: 0.918

Q: And the relative viability (NCI-H1437; first compound 0.005 µM)?
A: 0.729

Q: And the relative viability (NCI-H1437; first compound 0.01581 µM)?
A: 0.759

Q: And the relative viability (NCI-H1437; first compound 0.05 µM)?
A: 0.822

Q: What about the relative viability (NCI-H1437; first compound 0.1581 µM) of the same compound?
A: 0.819

Q: What about the relative viability (NCI-H1437; first compound 0.5 µM) of the same compound?
A: 0.831

Q: What about the relative viability (BEN; first compound 0.005 µM) of the same compound?
A: 0.718

Q: What about the relative viability (BEN; first compound 0.01581 µM) of the same compound?
A: 0.596

Q: What about the relative viability (BEN; first compound 0.05 µM) of the same compound?
A: 0.772

Q: And the relative viability (BEN; first compound 0.1581 µM)?
A: 0.714

Q: And the relative viability (BEN; first compound 0.5 µM)?
A: 0.647

Q: What about the relative viability (NCI-H2170; first compound 0.005 µM) of the same compound?
A: 0.275

Q: What about the relative viability (NCI-H2170; first compound 0.01581 µM) of the same compound?
A: 0.283

Q: And the relative viability (NCI-H2170; first compound 0.05 µM)?
A: 0.312

Q: And the relative viability (NCI-H2170; first compound 0.1581 µM)?
A: 0.285

Q: What about the relative viability (NCI-H2170; first compound 0.5 µM) of the same compound?
A: 0.26

Q: And the relative viability (SK-MES-1; first compound 0.005 µM)?
A: 0.462

Q: What about the relative viability (SK-MES-1; first compound 0.01581 µM) of the same compound?
A: 0.552

Q: What about the relative viability (SK-MES-1; first compound 0.05 µM) of the same compound?
A: 0.497

Q: What about the relative viability (SK-MES-1; first compound 0.1581 µM) of the same compound?
A: 0.458

Q: And the relative viability (SK-MES-1; first compound 0.5 µM)?
A: 0.523

Q: And the relative viability (EKVX; first compound 0.005 µM)?
A: 0.233

Q: And the relative viability (EKVX; first compound 0.01581 µM)?
A: 0.21

Q: What about the relative viability (EKVX; first compound 0.05 µM) of the same compound?
A: 0.161

Q: And the relative viability (EKVX; first compound 0.1581 µM)?
A: 0.206

Q: And the relative viability (EKVX; first compound 0.5 µM)?
A: 0.206

Q: And the relative viability (NCI-H1395; first compound 0.005 µM)?
A: 0.831

Q: And the relative viability (NCI-H1395; first compound 0.01581 µM)?
A: 1.18

Q: And the relative viability (NCI-H1395; first compound 0.05 µM)?
A: 1.13

Q: What about the relative viability (NCI-H1395; first compound 0.1581 µM) of the same compound?
A: 1.17

Q: And the relative viability (NCI-H1395; first compound 0.5 µM)?
A: 1.06

Q: What about the relative viability (SK-LU-1; first compound 0.005 µM) of the same compound?
A: 0.849

Q: What about the relative viability (SK-LU-1; first compound 0.01581 µM) of the same compound?
A: 1.12

Q: What about the relative viability (SK-LU-1; first compound 0.05 µM) of the same compound?
A: 0.886

Q: And the relative viability (SK-LU-1; first compound 0.1581 µM)?
A: 0.896

Q: And the relative viability (SK-LU-1; first compound 0.5 µM)?
A: 0.753

Q: What about the relative viability (NCI-H2228; first compound 0.005 µM) of the same compound?
A: 1.09

Q: And the relative viability (NCI-H2228; first compound 0.01581 µM)?
A: 0.9

Q: And the relative viability (NCI-H2228; first compound 0.05 µM)?
A: 1.14

Q: What about the relative viability (NCI-H2228; first compound 0.1581 µM) of the same compound?
A: 0.893

Q: And the relative viability (NCI-H2228; first compound 0.5 µM)?
A: 1.03

Q: What about the relative viability (NCI-H596; first compound 0.005 µM) of the same compound?
A: 1.12

Q: And the relative viability (NCI-H596; first compound 0.01581 µM)?
A: 1.23

Q: What about the relative viability (NCI-H596; first compound 0.05 µM) of the same compound?
A: 0.955

Q: And the relative viability (NCI-H596; first compound 0.1581 µM)?
A: 1.28

Q: What about the relative viability (NCI-H596; first compound 0.5 µM) of the same compound?
A: 1.06

Q: What about the relative viability (HCC-366; first compound 0.005 µM) of the same compound?
A: 1

Q: What about the relative viability (HCC-366; first compound 0.01581 µM) of the same compound?
A: 1.16

Q: What about the relative viability (HCC-366; first compound 0.05 µM) of the same compound?
A: 0.348

Q: And the relative viability (HCC-366; first compound 0.1581 µM)?
A: 1.04

Q: And the relative viability (HCC-366; first compound 0.5 µM)?
A: 1.08

Q: What about the relative viability (NCI-H1734; first compound 0.005 µM) of the same compound?
A: 1.09

Q: What about the relative viability (NCI-H1734; first compound 0.01581 µM) of the same compound?
A: 1.16

Q: What about the relative viability (NCI-H1734; first compound 0.1581 µM) of the same compound?
A: 0.973

Q: And the relative viability (NCI-H1734; first compound 0.5 µM)?
A: 1.09

Q: What about the relative viability (HARA; first compound 0.005 µM) of the same compound?
A: 0.686

Q: And the relative viability (HARA; first compound 0.01581 µM)?
A: 1

Q: And the relative viability (HARA; first compound 0.05 µM)?
A: 0.799

Q: What about the relative viability (HARA; first compound 0.1581 µM) of the same compound?
A: 0.728

Q: What about the relative viability (HARA; first compound 0.5 µM) of the same compound?
A: 1

Q: What about the relative viability (NCI-H1792; first compound 0.005 µM) of the same compound?
A: 0.901

Q: What about the relative viability (NCI-H1792; first compound 0.01581 µM) of the same compound?
A: 1.05

Q: And the relative viability (NCI-H1792; first compound 0.05 µM)?
A: 0.662

Q: What about the relative viability (NCI-H1792; first compound 0.1581 µM) of the same compound?
A: 0.938

Q: What about the relative viability (NCI-H1792; first compound 0.5 µM) of the same compound?
A: 0.878

From the supplement of paper PMC10307832
